Data published in patent publication US20260138961A1, “MODULATORS OF MITOCHONDRIAL DNA REPLICATION” (Pretzel Therapeutics, Inc., priority 2022, published 2026).

target: T1, POLγA:Y955C (Homo sapiens, UniProt P54098, Y955C); assay: DNA polymerization assay, POLγA:Y955C mutant; format: biochemical; settings: stimulation of polymerase activity, primed M13mp18 ssDNA, 37° C. 2 hours
T1 sequence (P54098 1-1239 Y955C): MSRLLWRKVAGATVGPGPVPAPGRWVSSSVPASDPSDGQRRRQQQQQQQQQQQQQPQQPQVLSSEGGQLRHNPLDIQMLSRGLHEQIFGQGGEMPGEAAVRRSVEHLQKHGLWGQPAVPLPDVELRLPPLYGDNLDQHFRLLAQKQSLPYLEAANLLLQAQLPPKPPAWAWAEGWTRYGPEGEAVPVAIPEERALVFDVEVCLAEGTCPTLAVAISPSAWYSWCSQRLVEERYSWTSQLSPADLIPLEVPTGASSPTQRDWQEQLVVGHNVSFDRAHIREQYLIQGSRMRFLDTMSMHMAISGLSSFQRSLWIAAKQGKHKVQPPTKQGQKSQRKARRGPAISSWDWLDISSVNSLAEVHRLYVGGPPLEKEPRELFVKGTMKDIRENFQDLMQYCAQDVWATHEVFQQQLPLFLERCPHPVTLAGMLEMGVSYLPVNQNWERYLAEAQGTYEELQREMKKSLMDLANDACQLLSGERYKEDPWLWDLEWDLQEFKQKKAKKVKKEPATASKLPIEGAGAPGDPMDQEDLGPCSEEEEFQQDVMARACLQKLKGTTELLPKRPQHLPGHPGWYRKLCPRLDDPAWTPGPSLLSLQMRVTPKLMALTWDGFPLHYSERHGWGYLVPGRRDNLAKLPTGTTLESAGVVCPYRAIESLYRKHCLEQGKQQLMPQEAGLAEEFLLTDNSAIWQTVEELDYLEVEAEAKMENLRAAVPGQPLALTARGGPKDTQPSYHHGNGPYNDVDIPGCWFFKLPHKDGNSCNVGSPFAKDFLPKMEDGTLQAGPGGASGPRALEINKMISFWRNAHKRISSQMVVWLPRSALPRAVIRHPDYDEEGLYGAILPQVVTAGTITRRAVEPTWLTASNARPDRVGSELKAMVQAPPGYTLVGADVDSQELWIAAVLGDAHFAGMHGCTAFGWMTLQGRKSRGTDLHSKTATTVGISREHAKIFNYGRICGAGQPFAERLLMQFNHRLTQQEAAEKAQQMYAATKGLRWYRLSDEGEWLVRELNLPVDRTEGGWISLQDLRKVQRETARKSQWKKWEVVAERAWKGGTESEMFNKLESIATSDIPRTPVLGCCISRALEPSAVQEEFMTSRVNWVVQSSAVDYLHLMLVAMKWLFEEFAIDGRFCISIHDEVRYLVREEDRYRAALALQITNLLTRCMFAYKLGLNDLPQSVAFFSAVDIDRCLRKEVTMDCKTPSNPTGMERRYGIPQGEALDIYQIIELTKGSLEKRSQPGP
T1 sequence (Q9UHN1 1-485 partner): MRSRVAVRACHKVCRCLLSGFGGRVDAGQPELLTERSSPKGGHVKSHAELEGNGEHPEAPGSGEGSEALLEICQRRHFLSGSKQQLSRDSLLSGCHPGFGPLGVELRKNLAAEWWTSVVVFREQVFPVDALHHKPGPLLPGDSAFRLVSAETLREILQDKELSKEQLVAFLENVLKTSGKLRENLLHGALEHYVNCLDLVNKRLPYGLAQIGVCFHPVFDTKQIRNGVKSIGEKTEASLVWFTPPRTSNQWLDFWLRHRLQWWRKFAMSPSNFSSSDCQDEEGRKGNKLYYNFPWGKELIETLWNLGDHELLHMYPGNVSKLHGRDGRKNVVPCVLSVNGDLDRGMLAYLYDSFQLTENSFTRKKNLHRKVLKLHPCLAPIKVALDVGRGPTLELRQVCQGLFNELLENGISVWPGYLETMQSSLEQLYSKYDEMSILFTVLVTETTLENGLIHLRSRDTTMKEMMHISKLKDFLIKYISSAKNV
Experimental: DNA Polymerization Assay to Monitor Effects on Human Wildtype POLγ and Four Disease-Causing Mutant Variants of Human POLγ.
The ability of small molecules to stimulate the polymerase activity of POLγ was analyzed in a quantitative fluorescence SYBR Green I assay with fluorescence intensity (FI) readout.
In the presence of dNTPs, wild type human POLγ and mutant derivatives thereof were incubated with single-stranded, circular M13mp18 ssDNA hybridized to a short DNA oligonucleotide that functions as a primer for initiation of DNA synthesis. POLγ and mutant derivatives thereof will extend the primer and use the M13mp18 molecule as a template to synthesize long stretches of double-stranded DNA. SYBR Green I, which is a double-stranded DNA-binding dye, was used to quantify formation of double-stranded DNA in the reaction. When bound to double-stranded DNA, SYBR Green I fluorescence increases by up to 100-fold.
The assay was performed in the 384-well plate format. Upon addition of compounds, changes in double-stranded DNA synthesis activity can be monitored by following effects on fluorescent intensity.
The reactions also contained the accessory POLγB subunit, and the human mitochondrial single-stranded DNA binding protein (mtSSB).
The DNA template mixture used in the assay contained 0.5 nM primed M13 mp18 ssDNA, 400 nM mtSSB, 0.1 mM Tris-HCl (pH 8.0), 0.1 mM dNTP, 10 mM MgCl2, 0.1 mg/mL BSA, 1 mM TCEP solution, and 0.02% Triton X-100. The DNA template mixture for the wild type protein contained either 100 μM dNTP, 1 μM dNTP, or 0.1 μM dNTP, designated in Table 2 as 100 μM, 1 μM, and 0.1 μM, respectfully.
Microplates with compounds (0.1 μL in each well) to be tested in the assay were prepared from 10 mM compound stocks in 100% DMSO, and equal amounts of DMSO without any compound were added to positive and negative control wells.
The protein mixture was dispensed (5 μL into each well) into compound plates and incubated at 37° C. for 15 minutes. After incubation, 5 μL of the DNA template mixture was dispensed into each well. The plates were then incubated at 37° C. for 2 hours.
During incubation, a combined stop buffer and detection reagent solution was prepared. The buffer contained 25 mM EDTA (pH 8.0), 0.02% Triton X-100, and SYBR Green I [Invitrogen] diluted 10,000× (for fluorescent readout). EDTA will stop the enzymatic reaction by chelating magnesium ions.

Compound	AC50
Cc1cc(S(=O)(=O)Nc2cccc(C(=O)N(C)C(C)CO)c2)c(C)cc1Cl (single isomer, unassigned) [Example 14, 3-((4-chloro-2,5-dimethylphenyl)sulfonamido)-N-(1-hydroxypropan-2-yl)-N-methylbenzamide]	2 µM
Cc1ccc(C)c(S(=O)(=O)Nc2cccc(C(=O)N3CCCCC3C#N)c2)c1 (centres unmarked) [Example 2, N-(3-(2-cyanopiperidine-1-carbonyl)phenyl)-2,5-dimethylbenzenesulfonamide]	1 µM
Cc1ccc(C)c(S(=O)(=O)Nc2cccc(C(=O)N3CCCCC3)c2)c1 [Example 3, 2,5-dimethyl-N-(3-(piperidine-1-carbonyl)phenyl)benzene sulfonamide]	5 µM
Cc1ccc(C)c(S(=O)(=O)Nc2cccc(C(=O)NCC3CC3)c2)c1 [Example 4, N-(cyclopropylmethyl)-3-((2,5-dimethylphenyl)sulfonamido)benzamide]	11 µM
Cc1ccc(C)c(S(=O)(=O)Nc2cccc(C(=O)N3CCCC[C@H]3C)c2)c1 [Example 5, (R)-2,5-dimethyl-N-(3-(2-methylpiperidine-1-carbonyl)phenyl)benzenesulfonamide]	3 µM
Cc1ccc(C)c(S(=O)(=O)Nc2cccc(C(=O)N3CCCC[C@@H]3C)c2)c1 [Example 6, (S)-2,5-dimethyl-N-(3-(2-methylpiperidine-1-carbonyl)phenyl)benzenesulfonamide]	5 µM
Cc1ccc(C)c(S(=O)(=O)Nc2cccc(C(=O)N3CCOCC3C#N)c2)c1 (centres unmarked) [Example 7, N-(3-(3-cyanomorpholine-4-carbonyl)phenyl)-2,5-dimethylbenzenesulfonamide]	1 µM
Cc1ccc(C)c(S(=O)(=O)Nc2cccc(C(=O)N[C@@H](C)C3CC3)c2)c1 [Example 8, (S)-N-(1-cyclopropylethyl)-3-((2,5-dimethylphenyl)sulfonamido)benzamide]	3 µM
Cc1cc(S(=O)(=O)Nc2cccc(C(=O)N3CCCC[C@H]3C)c2)c(C)cc1Cl [Example 9, (R)-4-chloro-2,5-dimethyl-N-(3-(2-methylpiperidine-1-carbonyl)phenyl)benzenesulfonamide]	2 µM
Cc1cc(S(=O)(=O)Nc2cccc(C(=O)N3CCC[C@H]3C)c2)c(C)cc1Cl [Example 10, (R)-4-chloro-2,5-dimethyl-N-(3-(2-methylpyrrolidine-1-carbonyl)phenyl)benzenesulfonamide]	0.4 µM
Cc1cc(S(=O)(=O)Nc2cccc(C(=O)NCc3ccccc3)c2)c(C)cc1Cl [Example 11, N-benzyl-3-((4-chloro-2,5-dimethylphenyl)sulfonamido)benzamide]	4 µM
Cc1cc(S(=O)(=O)Nc2cccc(C(=O)N(C)C)c2)c(C)cc1Cl [Example 12, 3-((4-chloro-2,5-dimethylphenyl)sulfonamido)-N,N-dimethylbenzamide]	2 µM
Cc1cc(S(=O)(=O)Nc2cc(F)cc(C(=O)N3CCC[C@H]3C)c2)c(C)cc1Cl [Example 13, (R)-4-chloro-N-(3-fluoro-5-(2-methylpyrrolidine-1-carbonyl)phenyl)-2,5-dimethylbenzenesulfonamide]	2 µM
Cc1cc(S(=O)(=O)Nc2cccc(-c3nccs3)c2)c(C)cc1Cl [Example 16, 4-chloro-2,5-dimethyl-N-(3-(thiazol-2-yl)phenyl)benzenesulfonamide]	0.8 µM
Cc1cc(S(=O)(=O)Nc2cccc(-c3ncco3)c2)c(C)cc1Cl [Example 17, 4-chloro-2,5-dimethyl-N-(3-(oxazol-2-yl)phenyl)benzenesulfonamide]	0.8 µM
Cc1cc(S(=O)(=O)Nc2cccc(-c3ccn(C)n3)c2)c(C)cc1Cl [Example 18, 4-chloro-2,5-dimethyl-N-(3-(1-methyl-1H-pyrazol-3-yl)phenyl)benzenesulfonamide]	3 µM
Cc1cc(S(=O)(=O)Nc2cccc(-c3nccn3C)c2)c(C)cc1Cl [Example 19, 4-chloro-2,5-dimethyl-N-(3-(1-methyl-1H-imidazol-2-yl)phenyl)benzenesulfonamide]	0.5 µM
Cc1cc(S(=O)(=O)Nc2cccc(-c3ncc(C#N)s3)c2)c(C)cc1Cl [Example 96, 4-chloro-N-(3-(5-cyanothiazol-2-yl)phenyl)-2,5-dimethylbenzenesulfonamide]	50 µM
Cc1cnc(-c2ccc(C)c(NS(=O)(=O)c3cc(C)c(Cl)cc3C)c2)s1 [Example 98, 4-chloro-2,5-dimethyl-N-(2-methyl-5-(5-methylthiazol-2-yl)phenyl)benzenesulfonamide]	> 10 µM
Cc1cnc(-c2ccc(Cl)c(NS(=O)(=O)c3cc(C)c(Cl)cc3C)c2)s1 [Example 102, 4-chloro-N-(2-chloro-5-(5-methylthiazol-2-yl)phenyl)-2,5-dimethylbenzenesulfonamide]	> 100 µM
Cc1cnc(-c2cc(NS(=O)(=O)c3cc(C)c(Cl)cc3C)ccc2C)s1 [Example 103, 4-chloro-2,5-dimethyl-N-(4-methyl-3-(5-methylthiazol-2-yl)phenyl)benzenesulfonamide]	9 µM
Cc1cc(S(=O)(=O)Nc2ccc3c(c2)CC(=O)N3)c(C)cc1Cl [Example 185, 4-chloro-2,5-dimethyl-N-(2-oxoindolin-5-yl)benzenesulfonamide]	2 µM
(R)-2,5-dimethyl-N-(3-(3-methylmorpholine-4-carbonyl)phenyl)benzenesulfonamide [Example 1]	2 µM
